From patent US20240173440A1, “HIGH PURITY COPPER RADIOPHARMACEUTICAL COMPOSITIONS AND DIAGNOSTIC AND THERAPEUTIC USES THEREOF” (Nuclidium AG, priority 2022, published 2024)

Tests used:
[1] = system: HT-1080.hFAP and HT-1080.wt xenografts; test: Quantitative biodistribution in HT-1080.hFAP and HT-1080.wt xenografted mice; type: in vivo; conditions: for Biodistribution HT-1080.wt: FAP-negative tumor; for Biodistribution HT-1080.hFAP: FAP-positive tumor
Protocol: The tumors were allowed to grow to an average volume of 100-200 mm3.
Biodistribution Studies: The xenografted mice were randomized (n=5 per group) and injected intravenously via the tail vein with the ^61Cu-labeled radioligands (100 μL, […], 0.8-1MBq). Mice were euthanized 1h and 4h pi. by CO2 asphyxiation. Organs of interest and blood were collected, rinsed of excess blood, blotted dry, weighed, and counted in a […]. The samples were counted against a suitably diluted aliquot of the injected solution as the standard and the results are expressed as the percentage of the injected activity per gram of tissue (0% I.A./g)+SD.

hFAP = hFAP (Homo sapiens (Human), UniProt Q12884); test: Saturation binding on isolated HEK-293.hFAP cell membranes; design: Bmax: unit not given here; conditions: 37° C.
Protocol: The cells were homogenized using Ultra-Turrax, and the homogenized suspension was centrifuged at 500×g for 10 min at 4° C. The supernatant was collected in centrifuge tubes (Beckman Coulter Inc., Brea, CA, USA). This procedure was then repeated 5 times. The collected supernatant was centrifuged in an ultra-centrifuge (Beckman) at 4° C. for 55 min at 49,000×g. Then, the pellet was re-suspended in 10 mM ice-cold HEPES buffer (pH 7.5), aliquoted, and stored at −80° C. The protein concentration of those membrane suspensions was determined by the Bradford method, BSA as the standard.
Each assay tube contained 170 μL of binding buffer (20 mM HEPES, pH 7.4, containing 4 mM μgCl2, 0.2% BSA, 20 μg/L bacitracin, 20 μg/L PMSF and 200,000 KIU/L aprotinin). The incubation was initiated by adding 30 μL of radioligand solution at 10 times the final concentration and 100 μL of cell membrane suspension to yield 10 μg of protein per well. For the determination of the non-specific binding, 140 μL of the above binding buffer was added along with 30 μL of FAPI-46 to obtain (0.1 mM). Bound fractions were plotted versus the corresponding radioligand concentration at equilibrium. The dissociation constant (KD) and maximal binding capacity (Bmax) values were calculated using GraphPad Software Inc., Prism 7, San Diego, CA, USA (Table 33 and FIG. 21).

[2] = Remaining PET activity in the mouse body 4h p.i.; type: in vivo; conditions: mice
Protocol: PET/CT Imaging: Mice bearing FAP-positive and FAP-negative xenografts were injected intravenously with ^61Cu-labeled radioligands of the present disclosure or ^61Cu-NODAGA-FAPI-46 (100 μL/[…]/6-12 MBq). […] The mice were euthanized by CO2 at 4 hours p.i., and static PET scans were acquired for 30 min.
Remaining PET activity in the mouse body 4h p.i. prior to the 4h scan was determined (Table 36).

[3] = 1 h p.i., HT-1080.hFAP and HT-1080.wt xenografts
[4] = 4 h p.i., HT-1080.hFAP and HT-1080.wt xenografts

hFAP, sequence (Q12884 whole entry): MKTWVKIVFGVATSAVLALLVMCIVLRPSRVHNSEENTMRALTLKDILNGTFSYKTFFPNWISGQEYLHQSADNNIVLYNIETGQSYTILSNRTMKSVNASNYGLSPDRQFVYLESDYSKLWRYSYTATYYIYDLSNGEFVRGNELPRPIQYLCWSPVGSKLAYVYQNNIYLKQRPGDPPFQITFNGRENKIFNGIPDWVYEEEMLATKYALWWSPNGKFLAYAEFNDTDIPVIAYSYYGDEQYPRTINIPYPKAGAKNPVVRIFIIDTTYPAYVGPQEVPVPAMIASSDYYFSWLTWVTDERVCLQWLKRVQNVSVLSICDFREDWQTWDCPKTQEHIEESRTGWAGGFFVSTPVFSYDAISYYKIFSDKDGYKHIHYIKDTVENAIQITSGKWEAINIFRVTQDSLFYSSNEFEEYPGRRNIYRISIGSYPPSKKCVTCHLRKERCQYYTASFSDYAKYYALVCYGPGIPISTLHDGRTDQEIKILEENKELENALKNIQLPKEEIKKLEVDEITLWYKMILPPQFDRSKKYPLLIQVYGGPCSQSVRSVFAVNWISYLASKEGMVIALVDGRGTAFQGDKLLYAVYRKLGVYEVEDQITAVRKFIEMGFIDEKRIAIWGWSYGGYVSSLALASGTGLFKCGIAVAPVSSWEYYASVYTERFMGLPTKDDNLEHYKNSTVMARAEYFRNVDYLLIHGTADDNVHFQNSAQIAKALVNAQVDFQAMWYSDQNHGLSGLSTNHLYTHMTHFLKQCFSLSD

SMILES: N#C[C@@H]1CC(F)(F)CN1C(=O)CNC(=O)c1ccnc2ccc(NC(=O)CCC(=O)NCCNC(=O)CC[C@H](C(=O)O)N3CCN4CCN(CC3)CC(=O)[O][61Cu][O]C(=O)C4)cc12 [[^61Cu]Cu-NODAGA-F1]
- Biodistribution Spleen ([1]; 1 hour p.i.): 0.8 ± 0.1 % I.A./g
- Biodistribution Adrenal [1, 3]: 2.3 ± 0.5 % IA/g
- Biodistribution Blood [1, 3]: 2.3 ± 0.1 % IA/g
- Biodistribution Femur [1, 3]: 10.9 ± 1.1 % IA/g
- Biodistribution HT1080.hFAP (FAP-positive tumor) [1, 3]: 12.6 ± 1.5 % IA/g
- Biodistribution HT1080.wt (FAP-negative tumor) [1, 3]: 4.5 ± 0.6 % IA/g
- Biodistribution Heart [1, 3]: 1.2 ± 0.3 % IA/g
- Biodistribution Intestine [1, 3]: 1.7 ± 0.4 % IA/g
- Biodistribution Kidney [1, 3]: 2.4 ± 0.3 % IA/g
- Biodistribution Liver [1, 3]: 1.5 ± 0.0 % IA/g
- Biodistribution Lung [1, 3]: 1.8 ± 0.0 % IA/g
- Biodistribution Muscle [1, 3]: 2.6 ± 0.7 % IA/g
- Biodistribution Pancreas [1, 3]: 2.5 ± 0.3 % IA/g
- Biodistribution Spleen [1, 3]: 0.8 ± 0.1 % IA/g
- Biodistribution Stomach [1, 3]: 1.1 ± 0.2 % IA/g
- Biodistribution Heart ([1]; 4 hours p.i.): 0.7 ± 0.1 % I.A./g
- Biodistribution Liver ([1]; 4 hours p.i.): 1.0 ± 0.2 % I.A./g
- Biodistribution Lung ([1]; 4 hours p.i.): 0.8 ± 0.2 % I.A./g
- Biodistribution Spleen ([1]; 4 hours p.i.): 0.5 ± 0.1 % I.A./g
- Biodistribution Stomach ([1]; 4 hours p.i.): 0.7 ± 0.1 % I.A./g
- Biodistribution Adrenal [1, 4]: 1.4 ± 0.2 % IA/g
- Biodistribution Blood [1, 4]: 1.2 ± 0.3 % IA/g
- Biodistribution Femur [1, 4]: 4.2 ± 1.5 % IA/g
- Biodistribution HT1080.hFAP (FAP-positive tumor) [1, 4]: 7.1 ± 3.0 % IA/g
- Biodistribution HT1080.wt (FAP-negative tumor) [1, 4]: 2.1 ± 0.5 % IA/g
- Biodistribution Heart [1, 4]: 0.7 ± 0.1 % IA/g
- Biodistribution Intestine [1, 4]: 1.1 ± 0.4 % IA/g
- Biodistribution Kidney [1, 4]: 1.5 ± 0.5 % IA/g
- Biodistribution Liver [1, 4]: 1.0 ± 0.2 % IA/g
- Biodistribution Lung [1, 4]: 0.8 ± 0.2 % IA/g
- Biodistribution Muscle [1, 4]: 1.3 ± 0.1 % IA/g
- Biodistribution Pancreas [1, 4]: 1.4 ± 0.2 % IA/g
- Biodistribution Spleen [1, 4]: 0.5 ± 0.1 % IA/g
- Biodistribution Stomach [1, 4]: 0.7 ± 0.1 % IA/g
- Biodistribution HT-1080.wt ([1]; 1 hour p.i.): 4.5 ± 0.6 % I.A./g
- Biodistribution HT-1080.wt ([1]; 4 hours p.i.): 2.1 ± 0.5 % I.A./g
- Biodistribution HT-1080.hFAP ([1]; 1 hour p.i.): 12.6 ± 1.5 % I.A./g
- Biodistribution HT-1080.hFAP ([1]; 4 hours p.i.): 7.1 ± 3.0 % I.A./g
- accumulation in tumor and target-positive tissues ([1]; HT-1080.hFAP and HT-1080.wt xenografts): high accumulation in FAP-positive (HT-1080.hFAP) tumor and murine-FAP-positive tissues
- Bmax (hFAP): 8.6-9.2
- retention in the body (remaining PET activity) [2]: highest retention in the body
